Results reported in patent US20130045239A1, “Method for Modulating the Pharmacodynamic Effect of Orally Administered Guanylate Cyclase Receptor Agonists” (Ironwood Pharmaceuticals, Inc., priority 2009, published 2013).
Marks after values point to notes of the source that are not given here. Positions of bridges follow the written chain, without caps; N, C: chain ends. Residues, ends and D or L forms follow the SMILES beside them.

Key:
Assay type in all cases: in vivo, human
[1] = Linaclotide food effect study: plasma levels of linaclotide and its metabolite; details: for Cmax / Tmax: human, plasma, po, 3000 ug, single oral dose 3000 ug, fasted
Description: (§1) During the Pretreatment Phase of each Crossover Period, subjects were not to receive study drug. On Day 8 of Crossover Period 1 and Day 43 of Crossover Period 2, subjects started the Treatment Phase and were to receive 300 ug linaclotide once daily for a total of 7 days. On Day 14 and 15 of Crossover Period 1, blood was to be drawn to assay for linaclotide and its active metabolite. After the study procedures were completed on Day 15, subjects were discharged home with instructions to follow the same outpatient diet that they followed during the Screening Stage and to return to the Phase 1 unit on Day 35 for Crossover Period 2. On Day 50 of Crossover Period 2, subjects were to receive a single oral dose of 3000 ug linaclotide and were discharged from the Phase 1 unit on Day 51. After subjects received the 3000 ug dose, blood was to be drawn on Day 50 and 51 to assay for linaclotide and linaclotide metabolites.
Blood samples were to be collected at 0 hour (prior to dosing) and 0.5, 1, 2, 3, 4, 6 and 24 hours post dose on Day 14 of Crossover Period 1 and on Day 50 of Crossover Period 2, for determination of the following PK parameters for linaclotide and a metabolite of linaclotide (CCEYCCNPACTGC (SEQ ID NO: 10)) (if systemic levels of linaclotide and or the metabolite are detected): maximum observed plasma concentration (Cmax), time to maximum concentration (Tmax), area under the plasma concentration time curve (AUC0-t), area under the plasma concentration time curve extrapolated to infinity (AUC0-∞), clearance relative to bioavailability (CL/F), apparent volume of distribution (Vd/F), apparent terminal half life (t1/2).

[2] = Linaclotide food effect study: 24-hour stool recovery; details: following 7 days of dosing at 300 ug per day, both fed and fasted conditions; predominately as a major linaclotide metabolite
Description: As for the 24-hour stool results, approximately 3 percent of a single dose of linaclotide was recovered on average following 7 days of dosing at 300 ug per day under both fed and fasted conditions. The recovery was predominately in the form of a major linaclotide metabolite.

healthy volunteers = experiment: Linaclotide food effect study: pharmacodynamic effect on bowel habits under fed vs fasted conditions
Description: The randomized, open-label, two-period, two-sequence, crossover trial of oral linaclotide in healthy volunteers tested under fasted or fed conditions summarized herein was undertaken to determine if linaclotide is susceptible to a food effect. The study consisted of 4 stages: an 8-day to 15-day Screening Stage, two 15- to 16-day Crossover Periods (1 and 2), and a 21-day Washout Stage which was to occur between Crossover Periods 1 and 2. The doses tested in this study were 300 ug and a 1-day dose of 3000 ug at the end of Crossover Periods 1 and 2.
The study consisted of 4 stages: an 8-day to 15-day Screening Stage which was to take place at home and determine eligibility, two 15- to 16-day stages (Crossover Periods 1 and 2) which were to take place in a Phase 1 unit, and a 21-day Washout Stage which was to take place at home and occur between Crossover Periods 1 and 2. The individual study Stages are detailed below.
Eligible subjects were entered into the Phase 1 unit and were randomized to 1 of 2 Treatment Sequences. Sequence 1 (Fed-Fasted): During Crossover Period 1, linaclotide was to be administered immediately after a high-fat breakfast (the fed condition); during Crossover Period 2, linaclotide was to be administered after a 10-hour fast (the fasted condition). Sequence 2 (Fasted-Fed): During Crossover Period 1, linaclotide was to be administered under the fasted condition; during Crossover Period 2, linaclotide was to be administered under the fed condition.
Crossover Period 1 lasted for 15 days and Crossover Period 2 started on Day 35, immediately after the 21-day Washout Stage, and lasted for 16 days. Subjects were to record their bowel habits in their BHD and ingest their meals at the time determined by their randomization sequence. At a specified time on each day, the information in the BHD was to be reviewed by the site staff to insure appropriate completion.
as §1
Linaclotide was to be administered at the same time each morning with 240 cc (8 oz) of water; food was to be withheld for approximately 4 hr after dosing, and additional water was to be withheld from 1 hour before linaclotide administration until 1 hour after dosing. Under the fed condition, subjects were required to start and complete a high-fat breakfast during the 30 minutes before linaclotide administration. Under the fasted condition, linaclotide was to be administered following an overnight fast.
All meals and meal times were standardized during Crossover Periods 1 and 2 with the total daily calorie, fat, and fiber intake the same for each diet condition (fed and fasted). The daily quantity of these nutrients was based on the “United States Department of Agriculture (USDA) Dietary Recommendations for Americans.” Each subject received approximately 2000 total calories per day.
Linaclotide, 300 ug, oral gelatin capsule. Linaclotide, 3000 ug (5 oral gelatin capsules of 600 ug linaclotide each), single dose.
The primary endpoint was the change from Pretreatment Phase to Treatment Phase for each Crossover Period in stool consistency on the BSFS scale. […]

[3] = 300 ug once daily, Fasted, last 4 days of treatment
[4] = 300 ug once daily, Fasted, over 7 days of treatment
[5] = 300 ug once daily, Fed, last 4 days of treatment
[6] = 300 ug once daily, Fed, over 7 days of treatment
[7] = 300 ug once daily, last 4 days of treatment
[8] = 300 ug once daily, over 7 days of treatment

C[C@@H]1NC(=O)[C@@H]2CCCN2C(=O)[C@H](CC(N)=O)NC(=O)[C@@H]2CSSC[C@H](N)C(=O)N[C@H]3CSSC[C@H](NC1=O)C(=O)N[C@@H]([C@@H](C)O)C(=O)NCC(=O)N[C@H](C(=O)N[C@@H](Cc1ccc(O)cc1)C(=O)O)CSSC[C@H](NC(=O)[C@H](Cc1ccc(O)cc1)NC(=O)[C@H](CCC(=O)O)NC3=O)C(=O)N2 [Linaclotide, Cys Cys Glu Tyr Cys Cys Asn Pro Ala Cys Thr Gly Cys Tyr] (H-CCEYCCNPACTGCY-OH; disulfide 1-6, 2-10, 5-13)
Cmax ([1]; subject 001012): 0.735 ng/mL | Tmax ([1]; subject 001012): 2 h | Tmax ([1]; subject 001019): 0.5 h | Cmax ([1]; subject 001019 (single measurable sample, at LLOQ)): 0.212 ng/mL | Recovery of a single dose in 24-hour stool, on average [2]: approximately 3% | CSBM, Change from Pretreatment Mean (SEM) (healthy volunteers; [3]): 0.39 (0.293) | SBM, Change from Pretreatment Mean (SEM) (healthy volunteers; [3]): 0.72 (0.419) | BSFS Score, Change from Pretreatment Mean (SEM) (healthy volunteers; 300 ug once daily, Fasted, last 4 days of treatment (Sensitivity Analysis)): 1.97 (0.174) | BSFS Score, Change from Pretreatment Mean (SEM) (healthy volunteers; [4]): 1.84 (0.177) | CSBM, Change from Pretreatment Mean (SEM) (healthy volunteers; [4]): 1.00 (0.443) | SBM, Change from Pretreatment Mean (SEM) (healthy volunteers; [4]): 1.50 (0.487) | Straining Score, Change from Pretreatment Mean (SEM) (healthy volunteers; [4]): −0.17 (0.057) | CSBM, Change from Pretreatment Mean (SEM) (healthy volunteers; [5]): 1.00 (0.647) | SBM, Change from Pretreatment Mean (SEM) (healthy volunteers; [5]): 2.28 (0.704) | BSFS Score, Change from Pretreatment Mean (SEM) (healthy volunteers; 300 ug once daily, Fed, last 4 days of treatment (Sensitivity Analysis)): 2.36 (0.230) | BSFS Score, Change from Pretreatment Mean (SEM) (healthy volunteers; [6]): 2.45 (0.159) | CSBM, Change from Pretreatment Mean (SEM) (healthy volunteers; [6]): 4.06 (1.181) | SBM, Change from Pretreatment Mean (SEM) (healthy volunteers; [6]): 5.94 (1.503) | Straining Score, Change from Pretreatment Mean (SEM) (healthy volunteers; [6]): −0.16 (0.064) | CSBM, Difference Mean and 90 percent CI Fed-Fasted Difference (healthy volunteers; [7]): 0.61 (−0.49, 1.71) | SBM, Difference Mean and 90 percent CI Fed-Fasted Difference (healthy volunteers; [7]): 1.56 (0.60, 2.51) | BSFS Score, Difference Mean and 90 percent CI Fed-Fasted Difference (healthy volunteers; 300 ug once daily, last 4 days of treatment (Sensitivity Analysis)): 0.38 (−0.09, 0.86) | BSFS Score, Difference Mean and 90% CI Fed-Fasted Difference (healthy volunteers; [8]): 0.61 (0.25, 0.98)^c | CSBM, Difference Mean and 90% CI Fed-Fasted Difference (healthy volunteers; [8]): 3.06 (0.90, 5.21) | SBM, Difference Mean and 90% CI Fed-Fasted Difference (healthy volunteers; [8]): 4.44 (2.22, 6.67) | Straining Score, Difference Mean and 90% CI Fed-Fasted Difference (healthy volunteers; [8]): 0.01 (−0.12, 0.14) | Equivalence of fasted versus fed condition on change from pretreatment BSFS Scores (primary endpoint analysis) (healthy volunteers; 300 ug, 7 days of treatment, 90 percent CI against equivalence margins of ±0.6125): did not demonstrate equivalence | Equivalence of fed versus fasted condition on BSFS Score (Sensitivity Analysis) (healthy volunteers; 300 ug, last 4 days of treatment, 90 percent CI against equivalence margins of ±0.6125): did not fall within the equivalence margins

CCEYCCNPACTGC (Synthetically generated peptide) [linaclotide metabolite, a metabolite of linaclotide]
Plasma level of linaclotide metabolite ([1]; 300 ug linaclotide oral for 7 days of treatment, all subjects, no quantifiable levels, limit of detection=2.0 ng/ml): < 2.0 ng/mL | Metabolite in plasma ([1]; after linaclotide dosing (300 ug and 3000 ug), any subject): No metabolite (SEQ ID NO: 10) was detected
